Measurements from US11129870B2, “Compositions and methods for uncoupling TrkB receptor from PLC gamma 1 for the treatment of epilepsy and anxiety-like disorder” (DUKE UNIVERSITY, priority 2010, dated 2021).
Where no end group is shown, it is not given here. [ ]: non-standard residue; d: D form. pY = N[C@@H](Cc1ccc(OP(=O)(O)O)cc1)C(=O)O

Legend:
[1] = tested on: Akt; assay: BDNF-mediated increase of p-Akt in cultured cortical neurons (western blot); format: cell-based, rat; conditions: 10 μM, 10-120 min pretreatment
[2] = tested on: kainic acid-induced status epilepticus; assay: Status epilepticus induced by kainic acid infusion into amygdala, peptide given i.v. before KA; format: in vivo, mouse
Method: FIG. 15: Continuous limbic and tonic-clonic seizures (status epilepticus) were induced in awake, adult male WT C57BL/6 mice weighing 20-25 g by unilateral stereotaxic microinjection of 0.3 μg kainic acid (KA) in a volume of 0.2 μl PBS, pH 7.4, into the right basolateral amygdala nucleus. Seven to nine days prior to KA infusion, a guide cannula was placed in the right amygdala under pentobarbital anesthesia using the following stereotactic coordinates relative to bregma: AP, −0.94 mm; ML, −2.85 mm; and DV, −3.75 mm (AP, anterior-posterior; ML, medio-lateral; DV, dorso-ventral); additionally, a bipolar EEG recording electrode was implanted into contralateral dorsal hippocampus: AP, −2.00 mm; ML, 1.60 mm; and DV, −1.53 mm. Phospho-Tat-pTrkBY816 or Scr-phospho-Tat-pTrkBY816 was injected intravenously through tail vein before amygdala KA infusion. EEG and mice behavior were recorded by EEG recording device and video camera respectively for 45 min following infusion of KA. Design of the time course and dose response experiments are presented in top and bottom panels respectively.
As described previously, microinjection of kainic acid into the right amygdala of awake, adult mice reliably induces continuous limbic and clonic motor seizures accompanied by electrographic evidence of seizure activity as detected by EEG recording electrode in the contralateral hippocampus. Status epilepticus is terminated by intraperitoneal administration of diazepam 45 minutes following infusion of kainic acid.
We asked whether intravenous infusion of Tat-pTrkBY816 via tail vein inhibited status epilepticus induced by microinjection of kainic acid into the right amygdala (FIG. 15). […] The inhibition of status epilepticus was also dose dependent. […] Whereas a dose of 1 mg/kg of Tat-pTrkBY816 was ineffective, doses of 3 mg/kg and 10 mg/kg effected a striking inhibition such that status epilepticus was prevented in at least 70% of animals (FIG. 17, top). By contrast, kainic acid induced status epilepticus in all animals pretreated with the control scr-Tat-pTrkBY816 regardless of dose (FIG. 17, top).
(§1) Surgery and microinfusion studies provided in Examples 10-14 were performed as described here. Surgery and microinfusion of KA into right amygdala of adult mice was performed as previously described (Liu, G. et al., (2013) Neuron 79:31-38). Briefly, mice were anesthetized with pentobarbital (60 mg/kg, intraperitoneally [i.p.]) and placed in a stereotaxic frame. A guide cannula was stereotactically placed above the right amygdala (coordinates from bregma: AP=−1.2 mm; ML=3.0 mm). A bipolar electrode was placed in the left dorsal hippocampus (coordinates from bregma: AP=−2.0 mm; ML=−1.6 mm; DV=−1.5 mm). A ground electrode connected to a screw was placed in the skull above the cerebellum. After a postoperative recovery period of 7 days, the animal was gently restrained and an infusion cannula was inserted into the right amygdala through the guide cannula at the depth of 3.7 mm below dura. Either KA (0.3 μg in 0.5 μl PBS) or vehicle control (0.5 μl of PBS) was infused into the right basolateral amygdala at the rate of 0.11 μl per minute. The infusion cannula was left in the right amygdala for two additional minutes before being withdrawn from the guide cannula. Animals were housed individually for time locked electroencephalogram (EEG) telemetry and video monitoring with food and water ad libitum.
Emergence of SE was typically evident in EEG recordings 5-10 min after KA infusion. The behavioral seizures associated with electrographic seizures typically consisted of immobility, followed by facial automatisms, unilateral or bilateral forelimb clonus, and whole body clonus. Tonic-clonic seizures with loss of posture and jumping also occurred during the seizures (Mouri, G. et al., (2008) Brain Res 1213:140-151). For experiments in which p816 or Scr was administered prior to SE, mice were monitored for 45 min following KA infusion. […]

[3] = tested on: spontaneous recurrent seizures; assay: SE-induced epilepsy: spontaneous recurrent seizures by video-EEG after 3 days of treatment following KA-SE; format: in vivo, mouse; conditions: for animals with initial spontaneous seizure within 3 days following SE: 10 mg/kg i.v. x3, n=8; for number of spontaneous seizures: n=8, mean±SEM; for spontaneous recurrent seizures per animal (range): for pY816 the six animals with seizures
Method: as §1
Emergence of SE was typically evident in EEG recordings 5-10 min after KA infusion. The behavioral seizures associated with electrographic seizures typically consisted of immobility, followed by facial automatisms, unilateral or bilateral forelimb clonus, and whole body clonus. Tonic-clonic seizures with loss of posture and jumping also occurred during the seizures (Mouri, G. et al., (2008) Brain Res 1213:140-151). For experiments in which p816 or Scr was administered prior to SE, mice were monitored for 45 min following KA infusion. EEG patterns consistent with electrographic SE included any of the following: 1. discrete electrographic seizures; 2. waxing and waning epileptiform activity; 3. continuous, high amplitude, rapid spiking; 4. periodic epileptiform discharges on a relatively flat background as described by Treiman, D. M. et al., (1990) Epilepsy Res 5:49-60 and Walton, et. al., (1988) Exp Neurol 101:267-275. Behavioral patterns consistent with seizures included Classes 3-6 as described in the following section (Racine, R. J. (1972) Electroencephalogr Clin Neurophysiol 32:281-294; Borges, K. et al., (2003) Exp Neurol 182:21-34). The duration of behavioral and electrographic SE were determined by analyses of video and EEG data by trained observers blinded to treatment of mice. A similar method was used in experiments examining effects of mutations (trkB^PLC/PLC and PLCγ1^+/−) on SE induced by KA. For experiments in which p816 or Scr was administered following SE, diazepam (10 mg/kg, i.p.) was administered 40 minutes after the onset of SE followed by lorazepam (6 mg/kg, i.p.) one hour later to suppress SE and limit the mortality and morbidity of this model. Animals underwent continuous video-EEG monitoring 24 hr per day, 7 days per week for first two weeks post-SE (day 1-14). At the end of the second week post-SE, monitoring was discontinued and animals were returned to home cages. After a two-week interval, monitoring was resumed for an additional two weeks (day 29-42). Spontaneous recurrent seizures were identified by review of video-EEG files by independently by each of two trained readers blinded to treatment of mice. The consistency of identifying SRS between readers was ˜90%; in instances in which readers disagreed, the events were excluded from this study. SRS was defined electrographically as high frequency (>5 Hz), high amplitude (>2×baseline) rhythmic epileptiform activity with a minimal duration of 5 s and behaviorally with video-monitoring (see behavioral-seizure scoring). […]

In the case of “YGRKKRRQRRR-LQNLAKASPVpYLDI (YGRKKRRQRRRLQNLAKASPV[pY]LDI) [pY816]”, the “BDNF-mediated increase of the p-Akt/Akt ratio (quantified, FIG. 11)” value [1] is reported as “Neither the Phospho-Tat-TrkBY816 nor the Scr-phospho-Tat-TrkBY816 peptide inhibited”, the “inhibition of status epilepticus” value ([2]; 1 mg/kg i.v., six hours prior to KA) is reported as “ineffective” and the “animals in which status epilepticus was prevented” value ([2]; 3 mg/kg i.v., six hours prior to KA) is reported as “at least 70%”. For the same substance, the “earliest time at which inhibitory effects were evident following i.v. infusion” value ([2]; 10 mg/kg i.v.) was 10 min, the “inhibition of status epilepticus remitted by” value ([2]; 10 mg/kg i.v.) was at most 72 h and the “peak of inhibition of status epilepticus (pretreatment interval)” value ([2]; 10 mg/kg i.v.) was 0.5 h. The “persistence of inhibition of status epilepticus” value ([2]; 10 mg/kg i.v.) was 24 h, the “return of seizure inhibition to control levels by” value ([2]; 10 mg/kg i.v.) was at most 72 h and the “inhibition of status epilepticus (time course)” value ([2]; 10 mg/kg i.v., 0.16-72 hr prior to KA) was “striking time dependent inhibition of status epilepticus”. The “status epilepticus at 0.5 hour pretreatment” value ([2]; 10 mg/kg i.v., 0.5 hour prior to KA) was “eliminated altogether”, the “maximal inhibition of convulsive motor and electrographic seizures” value ([2]; 10 mg/kg i.v., 6 hr prior to KA) was 90% and the “latency to the onset of status epilepticus” value ([2]; 10 mg/kg i.v., compared to scrambled control peptide 10 mg/kg) was “prolonged”. The “animals in which status epilepticus was prevented” value ([2]; 10 mg/kg i.v., six hours prior to KA) was “at least 70%”, the “increase of latency to onset of status epilepticus” value ([2]; 10 mg/kg i.v., six hours prior to KA, compared to Scr-phospho-Tat-pTrkBY816) was 3 fold and the “inhibition of convulsive motor and electrographic seizures persisting for 24 hr” value ([2]; 10 mg/kg i.v., up to 24 hr prior to KA) was 80-90%. The “onset of inhibition of status epilepticus (pretreatment interval)” value ([2]; 10 mg/kg i.v., earliest time tested) was 0.16 h, the “latency to onset of behavioral status epilepticus (dose response)” value ([2]; 1, 3, 10 mg/kg i.v., six hours prior to KA) was “increased the latency to onset of behavioral status epilepticus in a dose dependent fashion” and the “latency to the onset of the first spontaneous seizure” value ([3]; 10 mg/kg i.v. immediately, 24 hr and 48 hr after SE, compared to control) was “delayed”. For the same substance, the “animals with initial spontaneous seizure within 3 days following SE” value [3] was “single”, the “reduction in the number of spontaneous seizures compared to Scr” value ([3]; days 1-14 after SE) was 86% and the “number of spontaneous seizures” value ([3]; days 1-14 after SE) was 2.4±0.6. For the same substance, the “reduction in the number of spontaneous seizures compared to Scr” value ([3]; days 29-42 after SE) was 90%, the “number of spontaneous seizures” value ([3]; days 29-42 after SE) was 1.5±0.4 and the “animals that exhibited no seizures” value ([3]; days 29-42 after SE, of eight treated) was “two”. For the same substance, the “spontaneous recurrent seizures per animal (range)” value ([3]; days 29-42 after SE) was 1-3 seizures.
In the case of “YGRKKRRQRRRLVApYQLKIAPNDLS (YGRKKRRQRRRLVA[pY]QLKIAPNDLS) [Scr, reference compound]”, the “BDNF-mediated increase of the p-Akt/Akt ratio (quantified, FIG. 11)” value [1] is reported as “Neither the Phospho-Tat-TrkBY816 nor the Scr-phospho-Tat-TrkBY816 peptide inhibited”, the “animals in which kainic acid induced status epilepticus” value ([2]; 10 mg/kg i.v. at different times prior to KA) is reported as 23 of 24 and the “KA-induced seizures following i.v. infusion of peptide” value ([2]; i.v. prior to KA infusion into amygdala) is reported as “prolonged convulsive motor and electrographic seizures”. For the same substance, the “animals in which kainic acid induced status epilepticus” value ([2]; regardless of dose (1, 3, 10 mg/kg), six hours prior to KA) was “all animals”, the “animals with initial spontaneous seizure within 3 days following SE” value [3] was 5 of 8 and the “number of spontaneous seizures” value ([3]; days 1-14 after SE) was 18.1±1.7. For the same substance, the “number of spontaneous seizures” value ([3]; days 29-42 after SE) was 16.5±3.5 and the “spontaneous recurrent seizures per animal (range)” value ([3]; days 29-42 after SE) was 7-36 seizures.
